Values quoted from earlier work in patent publication US20240238347A1, “PHOTORECEPTOR CELLS FOR RETINAL AND MACULAR REPAIR” (The Johns Hopkins University, priority 2021, published 2024).
Like-named read-outs stand apart in the source and are kept apart here.

Key:
[1] = tested on: ESC- and iPSC-derived organoids
[2] = tested on: Thrβ mutant organoids; details: Thrβ KO+T3; early T3 addition
[3] = tested on: WERI-Rb1 retinoblastoma cells; details: retinoblastoma cell line treated with T3
[4] = tested on: human retinal organoids
[5] = wild type+T3, 20 nM T3 starting from days 20 to 50 until day 200 of differentiation
[6] = 'Early RA': 1.0 μM RA from days 43 to 130
[7] = 'Late RA': 1.0 μM RA from days 130 to 200

| Structure (SMILES) | cone density ([1]; early T3 addition in organoids) | L/M cones (L/M-opsin expressing), share of cones [1, 5] | S cones (S-opsin expressing), share of cones [1, 5] | L/M cones, share of cones [2] | S cones, share of cones [2] | L/M-opsin expression [3] | L cones at day 200 [4, 6] | M cones at day 200 [4, 6] | co-expressing cones at day 200 [4, 6] | L cones at day 200 [4, 7] | M cones at day 200 [4, 7] | co-expressing cones at day 200 [4, 7] | M-opsin and L-opsin expression (RNA-seq) ([4]; ESC-derived organoids grown in 'Early RA' conditions) | overall M/L cone densities at day 200 ([4]; across experimental conditions (No RA, Early RA, Late RA)) | M-opsin expression (previously published RNA-seq data) ([4]; iPSC-derived organoids grown in 'Early RA' conditions) | organoid differentiation / M or L cone yield ([4]; supplemental RA throughout development (N=6)) |
| --- | --- | --- | --- | --- | --- | --- | --- | --- | --- | --- | --- | --- | --- | --- | --- | --- |
| N[C@@H](Cc1cc(I)c(Oc2ccc(O)c(I)c2)c(I)c1)C(=O)O [T3, triiodothyronine] | dramatically increased cone density | 96% | 4% | 0% | 100% | expresses L/M-opsin | – | – | – | – | – | – | – | – | – | – |
| CC1=C(/C=C/C(C)=C/C=C/C(C)=C/C(=O)O)C(C)(C)CCC1 [RA, all-trans retinoic acid] | – | – | – | – | – | – | 1.65% | 98.35% | 0% | 92.56% | 6.35% | 1.10% | high M-opsin and minimal L-opsin expression | no significant differences | near exclusive expression of M-opsin | failed to differentiate, yielding minimal M or L cones |
